The values that follow come from ChEMBL document CHEMBL4765467, “Improving Thermodynamic Stability and Anticoagulant Activity of a Thrombin Binding Aptamer by Incorporation of 8-trifluoromethyl-2'-deoxyguanosine” (J Med Chem, 2021).

Data set [1] can be described thus: Stability in 50% human plasma assessed as compound degradation at 50 uM measured within 3 hrs by PAGE analysis. The data set is classed as ADME, cell-free.
The test system of data set [2] is Plasma. Briefly: Anticoagulant activity in human plasma assessed prothrombin time at 0.25 to 1 uM. The data set is classed as functional. Conditions: dose 0.25-1 µM.
The subject of data set [3] is Plasma. Briefly: Anticoagulant activity in human plasma assessed prothrombin time in presence of 1.5 fold complementary sequence of TBA. It counts as functional, cell-free.
Data set [4] relates to Plasma. Briefly: Anticoagulant activity in human plasma assessed prothrombin time in presence of complementary sequence of TBA. It counts as functional, cell-free.
Data set [5] in a line: Thermodynamic stability assessed as change in melting temperature by CD spectroscopy relative to TBA. The data set is classed as physicochemical.
For the next data set, the system named is Rattus norvegicus. Briefly: Anticoagulant activity in ferric chloride-induced Sprague-Dawley rat carotid thrombosis model assessed as reduction in thrombus formation by measuring thrombus area at […], iv by H and E staining based analysis. It counts as functional. Set-up: scale not given: the % may be the effect or the level left.
Data set [6] can be described thus: Stability in 50% human plasma assessed as compound degradation at 50 uM measured within 3 hrs by PAGE analysis relative to TBA. It counts as ADME, cell-free.

The source made the active and inactive calls. No cut-off for these calls is given here.

As for `Cc1cn([C@H]2C[C@H](OP(=O)(O)OC[C@H]3O[C@@H](n4cnc5c(=O)[nH]c(N)nc54)C[C@@H]3OP(=O)(O)OC[C@H]3O[C@@H](n4cnc5c(=O)[nH]c(N)nc54)C[C@@H]3OP(=O)(O)OC[C@H]3O[C@@H](n4cc(C)c(=O)[nH]c4=O)C[C@@H]3OP(=O)(O)OC[C@H]3O[C@@H](n4cnc5c(=O)[nH]c(N)nc54)C[C@@H]3OP(=O)(O)OC[C@H]3O[C@@H](n4cc(C)c(=O)[nH]c4=O)C[C@@H]3OP(=O)(O)OC[C@H]3O[C@@H](n4cnc5c(=O)[nH]c(N)nc54)C[C@@H]3OP(=O)(O)OC[C@H]3O[C@@H](n4cnc5c(=O)[nH]c(N)nc54)C[C@@H]3OP(=O)(O)OC[C@H]3O[C@@H](n4cc(C)c(=O)[nH]c4=O)C[C@@H]3OP(=O)(O)OC[C@H]3O[C@@H](n4cc(C)c(=O)[nH]c4=O)C[C@@H]3OP(=O)(O)OC[C@H]3O[C@@H](n4c(C(F)(F)F)nc5c(=O)[nH]c(N)nc54)C[C@@H]3OP(=O)(O)OC[C@H]3O[C@@H](n4cnc5c(=O)[nH]c(N)nc54)C[C@@H]3O)[C@@H](COP(=O)(O)O[C@H]3C[C@H](n4cc(C)c(=O)[nH]c4=O)O[C@@H]3COP(=O)(O)O[C@H]3C[C@H](n4cnc5c(=O)[nH]c(N)nc54)O[C@@H]3COP(=O)(O)O[C@H]3C[C@H](n4cnc5c(=O)[nH]c(N)nc54)O[C@@H]3COP(=O)(O)O)O2)c(=O)[nH]c1=O`, the Stabilty result in data set [1] is given as “Unstable”. Further, in the data set on Plasma [2], the PT is 29.1 s. Moreover, the result in the data set on Plasma [3] and in the data set on Plasma [4] was inactive. In data set [5], the deltaTm came out at 7.6 °C. Besides, the Activity in the data set on Rattus norvegicus was 60%.
Take `Cc1cn([C@H]2C[C@H](OP(=O)(O)OC[C@H]3O[C@@H](n4c(C(F)(F)F)nc5c(=O)[nH]c(N)nc54)C[C@@H]3OP(=O)(O)OC[C@H]3O[C@@H](n4cnc5c(=O)[nH]c(N)nc54)C[C@@H]3OP(=O)(O)OC[C@H]3O[C@@H](n4cc(C)c(=O)[nH]c4=O)C[C@@H]3OP(=O)(O)OC[C@H]3O[C@@H](n4cnc5c(=O)[nH]c(N)nc54)C[C@@H]3OP(=O)(O)OC[C@H]3O[C@@H](n4cc(C)c(=O)[nH]c4=O)C[C@@H]3OP(=O)(O)OC[C@H]3O[C@@H](n4cnc5c(=O)[nH]c(N)nc54)C[C@@H]3OP(=O)(O)OC[C@H]3O[C@@H](n4cnc5c(=O)[nH]c(N)nc54)C[C@@H]3OP(=O)(O)OC[C@H]3O[C@@H](n4cc(C)c(=O)[nH]c4=O)C[C@@H]3OP(=O)(O)OC[C@H]3O[C@@H](n4cc(C)c(=O)[nH]c4=O)C[C@@H]3OP(=O)(O)OC[C@H]3O[C@@H](n4c(C(F)(F)F)nc5c(=O)[nH]c(N)nc54)C[C@@H]3OP(=O)(O)OC[C@H]3O[C@@H](n4cnc5c(=O)[nH]c(N)nc54)C[C@@H]3O)[C@@H](COP(=O)(O)O[C@H]3C[C@H](n4cc(C)c(=O)[nH]c4=O)O[C@@H]3COP(=O)(O)O[C@H]3C[C@H](n4cnc5c(=O)[nH]c(N)nc54)O[C@@H]3COP(=O)(O)O[C@H]3C[C@H](n4cnc5c(=O)[nH]c(N)nc54)O[C@@H]3COP(=O)(O)O)O2)c(=O)[nH]c1=O`: the Stabilty entry in data set [1] was “Unstable”; in data set [6], “Stable”. The molecule also displayed a PT in the data set on Plasma [2] of 26.7 s. Further, the outcome in the data set with Plasma [3] and in the data set on Plasma [4] was inactive. Further, the deltaTm in data set [5] amounted to 16.8 °C.
